Laboratory results as given in patent US20160242416A1, “FUNGICIDAL ISOXAZOLINE CARBINOLS” (E I DU PONT DE NEMOURS AND COMPANY, priority 2015, published 2016).

Key:
Zymoseptoria tritici = assay: Test E: wheat leaf blotch, preventive spray on wheat seedlings; conditions: wheat leaf blotch, 100 = 100% disease control, 0 = no control
[1] = system: Puccinia recondita f sp. tritici; assay: Test F: wheat leaf rust, preventive spray on wheat seedlings; conditions: wheat leaf rust, 100 = 100% disease control, 0 = no control
Excerpt: (§1) General protocol for preparing test solutions for Tests A-G: the test compounds were first dissolved in acetone in an amount equal to 3% of the final volume and then suspended at the desired concentration (in ppm) in acetone and purified water (50/50 mix by volume) containing 250 ppm of the surfactant PEG400 (polyhydric alcohol esters). The resulting test suspensions were then used in Tests A-G. Compounds were sprayed at a concentration of 50 ppm (*) or 10 ppm to the point of run-off on the test plants, the equivalent of a rate of 200 g/ha or 40 g/ha, respectively.
The test solution was sprayed to the point of run-off on wheat seedlings. The following day the seedlings were inoculated with a spore suspension of Puccinia recondita f sp. tritici; (the causal agent of wheat leaf rust) and incubated in a saturated atmosphere at 20° C. for 24 h, and then moved to a growth chamber at 20° C. for 6 days, after which time visual disease ratings were made.
A dash (-) indicates no test results. Compounds with an asterisks (*) were applied at a concentration of 50 ppm, otherwise test solutions were applied at 10 ppm.

Stagonospora nodorum = assay: Test D: wheat glume blotch, preventive spray on wheat seedlings; conditions: wheat glume blotch, 100 = 100% disease control, 0 = no control
Excerpt: as §1
The test solution was sprayed to the point of run-off on wheat seedlings. The following day the seedlings were inoculated with a spore suspension of Stagonospora nodorum (also known as Septoria nodorum; the causal agent of wheat glume blotch) and incubated in a saturated atmosphere at 20° C. for 48 h, and then moved to a growth chamber at 20° C. for 6 days, after which time visual disease ratings were made.
Compounds with an asterisks (*) were applied at a concentration of 50 ppm, otherwise test solutions were applied at 10 ppm.

Botrytis cinerea = assay: Test B: gray mold, preventive spray on tomato seedlings; conditions: gray mold on tomato, 100 = 100% disease control, 0 = no control
[2] = system: Erysiphe graminis f sp. tritici; assay: Test G: wheat powdery mildew, preventive spray on wheat seedlings; conditions: wheat powdery mildew, 100 = 100% disease control, 0 = no control

Compound | Test E rating (% disease control) (Zymoseptoria tritici; 10 ppm) [%] | Test F rating (% disease control) ([1]; 10 ppm) [%] | Test D rating (% disease control) (Stagonospora nodorum; 10 ppm) [%] | Test B rating (% disease control) (Botrytis cinerea; 10 ppm) [%] | Test G rating (% disease control) ([2]; 10 ppm) [%] | Test E rating (% disease control) (Zymoseptoria tritici; 50 ppm (asterisk)) [%] | Test F rating (% disease control) ([1]; 50 ppm (asterisk)) [%] | Test D rating (% disease control) (Stagonospora nodorum; 50 ppm (asterisk)) [%] | Test B rating (% disease control) (Botrytis cinerea; 50 ppm (asterisk)) [%] | Test G rating (% disease control) ([2]; 50 ppm (asterisk)) [%]
CC(C)(C)C(O)(Cn1cncn1)C1=NOC(COc2ccc(F)cc2)C1 (single isomer, unassigned) [Compound 80] | 1 | 100 | 100 | 82 | 99 | – | – | – | – | –
CC(C)(C)C(O)(Cn1cncn1)C1=NOC(COc2ccc(C(F)(F)F)cc2)C1 (single isomer, unassigned) [Compound 81] | 95 | 100 | 100 | 57 | 100 | – | – | – | – | –
CC(C)(C)C(O)(Cn1cncn1)C1=NOC(Cc2ccccc2)C1 (single isomer, unassigned) [Compound 86] | 1 | 74 | 99 | 72 | 98 | – | – | – | – | –
CC(C)(C)C(O)(Cn1cncn1)C1=NOC(Cc2ccccc2)C1 (single isomer, unassigned) [Compound 87] | 1 | 99 | 99 | 83 | 98 | – | – | – | – | –
CC(C)(C)C(O)(Cn1cncn1)C1=NOC(COc2ccc(C(F)(F)F)cc2)C1 (single isomer, unassigned) [Compound 88] | 76 | 100 | 99 | 0 | 99 | – | – | – | – | –
OC(Cn1cncn1)(C1=NOC(COC2CCCCC2)C1)c1ccc(Cl)cc1 (single isomer, unassigned) [Compound 89] | 0 | 0 | 0 | 0 | 76 | – | – | – | – | –
OC(Cn1cncn1)(C1=NOC(COC2CCCCC2)C1)c1ccc(Cl)cc1 (single isomer, unassigned) [Compound 90] | 0 | 0 | 59 | 0 | 64 | – | – | – | – | –
CC(C)(C)C(O)(Cn1cncn1)C1=NOC(COC2CCCCC2)C1 (single isomer, unassigned) [Compound 91] | 2 | 0 | 20 | 0 | 56 | – | – | – | – | –
CC(C)(C)C(O)(Cn1cncn1)C1=NOC(COC2CCCCC2)C1 (single isomer, unassigned) [Compound 92] | 3 | 0 | 10 | 0 | 13 | – | – | – | – | –
CC(C)(C)C(O)(Cn1cncn1)C1=NOC(COc2ccc(Cl)cn2)C1 (single isomer, unassigned) [Compound 95] | 0 | 100 | 100 | 100 | 100 | – | – | – | – | –
CC(C)(C)C(O)(Cn1cncn1)C1=NOC(COc2ccc(Cl)cn2)C1 (single isomer, unassigned) [Compound 96] | 5 | 100 | 100 | 85 | 99 | – | – | – | – | –
CC(C)(C)C(O)(Cn1cncn1)C1=NOC(COc2ccc(Cl)nc2)C1 (single isomer, unassigned) [Compound 97] | 0 | 98 | 99 | 0 | 94 | – | – | – | – | –
CC(C)(C)C(O)(Cn1cncn1)C1=NOC(COc2ccc(Cl)nc2)C1 (single isomer, unassigned) [Compound 98] | 0 | 88 | 0 | 0 | 55 | – | – | – | – | –
CC(C)(C)C(O)(Cn1cncn1)C1=NOC(COc2ncc(Cl)cn2)C1 (single isomer, unassigned) [Compound 99] | 0 | 95 | 63 | 0 | 96 | – | – | – | – | –
CC(C)(C)C(O)(Cn1cncn1)C1=NOC(COc2ncc(Cl)cn2)C1 (single isomer, unassigned) [Compound 100] | 0 | 79 | 77 | 0 | 92 | – | – | – | – | –
OC(Cn1cncn1)(C1=NOC(COc2ccc(Cl)nc2)C1)c1ccc(Cl)cc1 (single isomer, unassigned) [Compound 101] | 0 | 100 | 0 | 0 | 99 | – | – | – | – | –
OC(Cn1cncn1)(C1=NOC(COc2ccc(Cl)nc2)C1)c1ccc(Cl)cc1 (single isomer, unassigned) [Compound 102] | 0 | 18 | 0 | 0 | 69 | – | – | – | – | –
OC(Cn1cncn1)(C1=NOC(c2ccc(Cl)cc2)C1)c1ccc(C(F)(F)F)cc1 (single isomer, unassigned) [Compound 105] | 8 | 100 | 96 | 0 | 99 | – | – | – | – | –
OC(Cn1cncn1)(C1=NOC(c2ccc(Cl)cc2)C1)c1ccc(C(F)(F)F)cc1 (single isomer, unassigned) [Compound 106] | 0 | 72 | 0 | 0 | 89 | – | – | – | – | –
CSc1ccc(C2CC(C(O)(Cn3cncn3)c3ccc(Cl)cc3)=NO2)cc1 (single isomer, unassigned) [Compound 107] | 58 | 100 | 32 | 0 | 99 | – | – | – | – | –
CSc1ccc(C2CC(C(O)(Cn3cncn3)c3ccc(Cl)cc3)=NO2)cc1 (single isomer, unassigned) [Compound 108] | 25 | 78 | 0 | 0 | 64 | – | – | – | – | –
OC(Cn1cncn1)(C1=NOC(c2ccc(Cl)cc2)C1)c1cccc(Oc2ccccc2)c1 (single isomer, unassigned) [Compound 109] | 66 | 100 | 59 | 0 | 93 | – | – | – | – | –
OC(Cn1cncn1)(C1=NOC(c2ccc(Cl)cc2)C1)c1cccc(Oc2ccccc2)c1 (single isomer, unassigned) [Compound 110] | 72 | 21 | 0 | 0 | 48 | – | – | – | – | –
C[S+]([O-])c1ccc(C2CC(C(O)(Cn3cncn3)c3ccc(Cl)cc3)=NO2)cc1 (single isomer, unassigned) [Compound 111] | 9 | 100 | 0 | 0 | 98 | – | – | – | – | –
C[S+]([O-])c1ccc(C2CC(C(O)(Cn3cncn3)c3ccc(Cl)cc3)=NO2)cc1 (single isomer, unassigned) [Compound 112] | 80 | 65 | 0 | 0 | 69 | – | – | – | – | –
CS(=O)(=O)c1ccc(C2CC(C(O)(Cn3cncn3)c3ccc(Cl)cc3)=NO2)cc1 (single isomer, unassigned) [Compound 113] | 9 | 100 | 0 | 0 | 98 | – | – | – | – | –
CS(=O)(=O)c1ccc(C2CC(C(O)(Cn3cncn3)c3ccc(Cl)cc3)=NO2)cc1 (single isomer, unassigned) [Compound 114] | 39 | 36 | 0 | 0 | 56 | – | – | – | – | –
OC(Cc1ccccc1)(Cn1cncn1)C1=NOC(c2ccc(Cl)cc2)C1 (single isomer, unassigned) [Compound 121] | – | – | – | – | – | 62 | 100 | 100 | 100 | 100
